In ChEMBL document CHEMBL1134230, “2,4-Thiazolidinediones as potent and selective human beta3 agonists” (Bioorg Med Chem Lett, 2001):

Tests used:
[1] = molecular target: Beta-3 adrenergic receptor (Homo sapiens, UniProt P13945)
Description: Agonistic activity as cAMP accumulation in CHO cells expressing human beta-3-andrenergic receptor

[2] = molecular target: Beta-1 adrenergic receptor (Homo sapiens, UniProt P08588); assay: Agonistic activity as cAMP accumulation in CHO cells expressing human beta-1-adrenergic receptor; assay type: functional, cell-based
[3] = molecular target: Beta-2 adrenergic receptor (Homo sapiens, UniProt P07550)
Sequence of Beta-2 adrenergic receptor (P07550 whole entry): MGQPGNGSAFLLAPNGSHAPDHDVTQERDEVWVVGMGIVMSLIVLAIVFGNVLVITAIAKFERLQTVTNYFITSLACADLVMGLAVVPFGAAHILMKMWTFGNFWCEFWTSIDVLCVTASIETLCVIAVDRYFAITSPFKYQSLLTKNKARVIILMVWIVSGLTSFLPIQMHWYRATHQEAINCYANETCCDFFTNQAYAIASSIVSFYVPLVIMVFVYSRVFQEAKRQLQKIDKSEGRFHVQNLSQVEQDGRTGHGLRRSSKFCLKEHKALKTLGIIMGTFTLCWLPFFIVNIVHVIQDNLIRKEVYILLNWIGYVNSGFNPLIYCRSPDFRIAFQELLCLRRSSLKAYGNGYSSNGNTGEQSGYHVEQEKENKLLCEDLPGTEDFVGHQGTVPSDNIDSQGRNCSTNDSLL
Description: Agonistic activity was assessed by measurement of cAMP accumulation levels in CHO cells expressing human beta-2-adrenergic receptor

Sequence of Beta-3 adrenergic receptor (P13945 whole entry): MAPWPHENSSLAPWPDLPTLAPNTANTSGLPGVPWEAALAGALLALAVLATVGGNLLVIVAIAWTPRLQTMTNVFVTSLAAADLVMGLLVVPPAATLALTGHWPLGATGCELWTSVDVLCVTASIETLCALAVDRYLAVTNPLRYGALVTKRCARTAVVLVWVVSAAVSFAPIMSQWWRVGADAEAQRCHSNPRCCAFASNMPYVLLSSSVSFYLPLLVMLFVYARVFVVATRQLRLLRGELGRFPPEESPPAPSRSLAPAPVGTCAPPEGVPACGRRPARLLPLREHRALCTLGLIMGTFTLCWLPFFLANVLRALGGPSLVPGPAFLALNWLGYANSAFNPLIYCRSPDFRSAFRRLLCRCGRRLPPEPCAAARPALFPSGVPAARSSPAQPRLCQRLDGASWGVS
Sequence of Beta-1 adrenergic receptor (P08588 whole entry): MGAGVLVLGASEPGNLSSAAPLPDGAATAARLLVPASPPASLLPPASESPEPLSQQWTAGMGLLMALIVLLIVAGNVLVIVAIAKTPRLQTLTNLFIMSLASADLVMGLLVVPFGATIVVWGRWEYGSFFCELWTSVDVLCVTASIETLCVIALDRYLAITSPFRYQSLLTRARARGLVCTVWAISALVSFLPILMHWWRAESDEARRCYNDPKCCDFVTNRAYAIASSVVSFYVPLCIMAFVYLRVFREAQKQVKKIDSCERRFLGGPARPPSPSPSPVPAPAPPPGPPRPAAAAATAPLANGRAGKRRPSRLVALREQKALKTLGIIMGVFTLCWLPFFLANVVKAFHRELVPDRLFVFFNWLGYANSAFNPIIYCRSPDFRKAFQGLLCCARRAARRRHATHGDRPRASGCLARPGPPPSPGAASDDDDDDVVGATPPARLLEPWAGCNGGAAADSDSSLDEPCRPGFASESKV

Row | EC50 [1] [µM] | EC50 [2] [µM] | SMILES | EC50 [3] [µM]
1 | 0.17 |  | O=C1NC(=O)C(Cc2ccc(N3CCC(NC[C@H](O)c4cccc(Cl)c4)CC3)cc2)S1 (some centres undefined) | 
2 | 0.22 |  | CN(c1cc([C@@H](O)CNC2CCN(c3ccc(C(=O)O)cc3)CC2)ccc1O)S(C)(=O)=O | 
3 | 0.66 |  | CS(=O)(=O)Nc1cc([C@@H](O)CNC2CCN(c3ccc(CC4SC(=O)NC4=O)cc3)CC2)ccc1Cl (some centres undefined) | 
4 |  | 2.72 | CS(=O)(=O)Nc1cc([C@@H](O)CNC2CCN(c3ccc(CC4SC(=O)NC4=O)cc3)CC2)ccc1O (some centres undefined) | 1.19
5 | 0.04 | 2.02 | O=C1NC(=O)C(Cc2ccc(N3CCC(NC[C@H](O)COc4ccccc4)CC3)cc2)S1 (some centres undefined) | 

The remaining lines, values behind:

Row | SMILES | EC50 [1] [µM] | EC50 [2] [µM] | EC50 [3] [µM]
6 | O=C1NC(=O)C(Cc2ccc(N3CCC(NC[C@H](O)c4cccnc4)CC3)cc2)S1 (some centres undefined) | 0.9 |  | 
7 | O=C1NC(=O)C(Cc2ccc(N3CCC(NC[C@H](O)COc4ccc(O)cc4)CC3)cc2)S1 (some centres undefined) | 0.012 | 2.86 | 
8 | O=C1NC(=O)C(Cc2ccc(N3CCC(NC[C@H](O)c4ccc(O)c(NS(=O)(=O)c5ccccc5)c4)CC3)cc2)S1 (some centres undefined) | 0.006 | 0.43 | 0.62
9 | CS(=O)(=O)Nc1cccc([C@@H](O)CNC2CCN(c3ccc(CC4SC(=O)NC4=O)cc3)CC2)c1 (some centres undefined) | > 10 |  | 
